# Measured values reported in ChEMBL document CHEMBL3044714, “Studies on fused heterocyclic 3,6-disubstituted-1,2,4-triazolo-1,3,4-thiadiazoles: synthesis and biological evaluation” (Med Chem Res, 2011).
# Assays:
# [1] = system: Rattus norvegicus; test: Anti-inflammatory activity in Rattus norvegicus Wistar (rat) assessed as inhibition of carrageenan-induced paw edema at 20 mg/kg, po administered 30 min prior to carrageenan-induced measured after 3 hr relative to control; format: functional
# [2] = system: Rattus norvegicus; test: Anti-inflammatory activity in Rattus norvegicus Wistar (rat) assessed as inhibition of carrageenan-induced paw edema at 20 mg/kg, po administered 30 min prior to carrageenan-induced measured after 2 hr relative to control; format: functional
# [3] = system: Mus musculus; test: Analgesic activity in Mus musculus albino (mouse) assessed as protection against acetic acid-induced writhing at 25 mg/kg, ip administered 20 min prior to acetic acid-challenge measured for 20 min relative to control; format: functional; settings: route intraperitoneal
# [4] = system: Rattus norvegicus; test: Ulcerogenic activity in fasted Rattus norvegicus Wistar (rat) assessed as ulcer index at 60 mg/kg, po measured after 17 hr; format: toxicity, organism-based; design: dose 60 mg/kg, route oral; settings: in vivo
# [5] = system: Rattus norvegicus; test: Induction of lipid peroxidation in fasted Rattus norvegicus Wistar (rat) assessed as malondialdehyde level per 100 mg gastric mucosal tissue at 60 mg/kg, po measured after 17 hr by thiobarbuteric acid method; format: organism-based, Gastric mucosa; design: dose 60 mg/kg, route oral; settings: in vivo
Activity [5],SMILES,inhibition in vivo at 20 mg/kg [1],inhibition in vivo at 20 mg/kg [2],Activity [3],UI [4]
–,O=C(NCc1nn2c(Cc3ccccc3)nnc2s1)c1ccccc1,28%,21.2%,–,–
3.26 nmol,c1ccc(Cc2nnc3sc(-c4ccccc4Oc4ccccc4)nn23)cc1,56.3%,41%,30.43%,0.91
–,c1ccc(Cc2nnc3sc(Cc4cc5ccccc5[nH]4)nn23)cc1,41%,36.7%,–,–
–,O=C(NCc1nn2c(COc3ccccc3)nnc2s1)c1ccccc1,37.1%,35.9%,–,–
4.42 nmol,O=C(c1ccccc1)c1ccccc1-c1nn2c(COc3ccccc3)nnc2s1,63.3%,54.8%,43.48%,1.25
3.15 nmol,c1ccc(OCc2nnc3sc(Cc4cc5ccccc5[nH]4)nn23)cc1,50.5%,32.1%,40.22%,0.83
–,c1ccc(OCc2nnc3sc(Cc4cccc5ccccc45)nn23)cc1,24.6%,18.5%,–,–
3.95 nmol,O=C(CCc1nn2c(COc3ccccc3)nnc2s1)c1ccccc1,70.9%,56.5%,65.58%,1.16
–,O=C(NCc1nn2c(-c3ccccc3O)nnc2s1)c1ccccc1,32.3%,24.4%,–,–
–,Oc1ccccc1-c1nnc2sc(Cc3cccc4ccccc34)nn12,35%,28%,–,–
–,CC(=O)Oc1ccccc1C(=O)O [ASPIRIN],–,–,61.96%,–
7.95 nmol,COc1ccc2c(c1)c(CC(=O)O)c(C)n2C(=O)c1ccc(Cl)cc1 [INDOMETHACIN],66.9%,50.7%,–,2.25
